Data published in patent US20140073700A1, “[…] ACID DERIVATIVES AND METHODS OF USE THEREOF” (AbbVie Inc., priority 2012, published 2014).

System: IFNγ-Induced NO Production in RAW 264.7 cells
Assay: Nitric Oxide Suppression Assay (suppression of IFNγ-induced NO production)
Format: cell-based
Details: RAW264.7; RAW 264.7 mouse macrophage cells, 20 ng/mL interferon gamma, Griess detection; single curve fit to mean data of n=2-3
Procedure: RAW 264.7, a mouse macrophage cell line, was obtained from American Type Culture Collection (Manassas Va.) and maintained in the log phase of growth in Dulbecco's Modified Eagle's Medium (DMEM), 10% heat inactivated fetal calf serum and 100 units/mL antibiotic-antimycotic (AA). Cells were cultured and maintained in a humidified incubator at 37° C. under 5% CO2 and 95% air. Cells were sub-cultured every 3 days by scraping and were not used beyond passage 20. All cell culture supplies were obtained from Life Technologies (Grand Island, N.Y.).
RAW 264.7 cells were plated 1 day in advance of experiment at a concentration of 80,000 cells/well onto CellBIND® 96 well plates (Corning, N.Y.) in a total volume of 100 μL. The next day, pre-treat cells with compounds (from 3 μM to 0.3 nM serially diluted in a 10 point curve) from a 10× stock by adding 10 μL per well in complete DMEM media containing 10% fetal calf serum. The plates were centrifuged for 3 minutes at 400×g at room temperature followed by 2 hour incubation at 37° C. The cells were then incubated overnight at 37° C. with 10 μL of the insult, interferon gamma (R&D Systems, Minneapolis, Minn.), from a 10× stock for a final concentration of 20 ng/mL. The plates were centrifuged for 3 minutes at 400×g at room temperature followed by 18 hour incubation at 37° C. The following day, transfer 50 μL cell culture supernatant from each well into a clear bottom 96 well plate and follow the instructions from Promega's Griess Detection Kit #G2930 (Madison, Wis.) which involves the addition of 50 μL of the provided sulfanilamide solution for a 5-10 minute incubation at room temperature. Next add 50 μL of the provided N-1-napthylethylenediamine dihydrochloride (NED) solution for a 5-10 minute incubation at room temperature and protected from light. If any air bubbles were introduced into the well, the plates need to be centrifuged for 5 minutes at 400×g at room temperature to avoid interference with absorbance readings. The plates were read for absorbance within 30 minutes with a filter between 520 nm and 550 nm.
For the ability of compounds to suppress the increase in nitric oxide release, the percent maximal intensity of nitric oxide detected in each well was normalized to that induced by the peak value for 20 ng/mL of interferon gamma alone and plotted against the compound concentration to calculate IC50 values and to control for plate-to-plate variability. Concentration-response data were analyzed using GraphPad Prism (San Diego, Calif.); the IC50 values were derived from a single curve fit to the mean data of n=2-3, in duplicates.
All compounds were dissolved in dimethyl sulfoxide at 10 mM stock solutions and tested at a concentration that the dimethyl sulfoxide levels never exceeded 1%.

## COC(=O)[C@@]1(C)CC[C@]2(C)CC[C@@]3(C)[C@]4(C)CC[C@H]5C(C)(C)C(=O)C(C#N)=C[C@]5(C)C4=CC(=O)[C@]3(O)[C@@H]2C1 [Example 1, (2S,4aS,6aS,6bR,8aR,12aS,14aS,14bR)-methyl 11-cyano-14a-hydroxy-2,4a,6a,6b,9,9,12a-heptamethyl-10,14-dioxo-1,2,3,4,4a,5,6,6a,6b,7,8,8a,9,10,12a,14,14a,14b-octadecahydropicene-2-carboxylate]
  IC50: 16.1 nM

## CCCNC(=O)[C@@]1(C)CC[C@]2(C)CC[C@@]3(C)[C@]4(C)CC[C@H]5C(C)(C)C(=O)C(C#N)=C[C@]5(C)C4=CC(=O)[C@]3(O)[C@@H]2C1 [Example 25, (2S,4aS,6aS,6bR,8aR,12aS,14aS,14bR)-11-cyano-14a-hydroxy-2,4a,6a,6b,9,9,12a-heptamethyl-10,14-dioxo-N-propyl-1,2,3,4,4a,5,6,6a,6b,7,8,8a,9,10,12a,14,14a,14b-octadecahydropicene-2-carboxamide]
  IC50: 7.8 nM

## COc1ccc(NC(=O)[C@@]2(C)CC[C@]3(C)CC[C@@]4(C)[C@]5(C)CC[C@H]6C(C)(C)C(=O)C(C#N)=C[C@]6(C)C5=CC(=O)[C@]4(O)[C@@H]3C2)cc1 [Example 27, (2S,4aS,6aS,6bR,8aR,12aS,14aS,14bR)-11-cyano-14a-hydroxy-N-(4-methoxyphenyl)-2,4a,6a,6b,9,9,12a-heptamethyl-10,14-dioxo-1,2,3,4,4a,5,6,6a,6b,7,8,8a,9,10,12a,14,14a,14b-octadecahydropicene-2-carboxamide]
  IC50: 13.6 nM

## COCC(COC)NC(=O)[C@@]1(C)CC[C@]2(C)CC[C@]3(C)[C@H](C(=O)C=C4[C@@]5(C)C=C(C#N)C(=O)C(C)(C)[C@@H]5CC[C@]43C)[C@@H]2C1 [Example 37, (2S,4aS,6aR,6bS,8aR,12aS,14aR,14bS)-11-cyano-N-(1,3-dimethoxypropan-2-yl)-2,4a,6a,6b,9,9,12a-heptamethyl-10,14-dioxo-1,2,3,4,4a,5,6,6a,6b,7,8,8a,9,10,12a,14,14a,14b-octadecahydropicene-2-carboxamide]
  IC50: 15.8 nM

## CC(C)(C)CNC(=O)[C@@]1(C)CC[C@]2(C)CC[C@@]3(C)[C@]4(C)CC[C@H]5C(C)(C)C(=O)C(C#N)=C[C@]5(C)C4=CC(=O)[C@]3(O)[C@@H]2C1 [Example 7, (2S,4aS,6aS,6bR,8aR,12aS,14aS,14bR)-11-cyano-N-(2,2-dimethylpropyl)-14a-hydroxy-2,4a,6a,6b,9,9,12a-heptamethyl-10,14-dioxo-1,2,3,4,4a,5,6,6a,6b,7,8,8a,9,10,12a,14,14a,14b-octadecahydropicene-2-carboxamide]
  IC50: 22.4 nM

## CC1(C)C(=O)C(C#N)=C[C@]2(C)C3=CC(=O)[C@]4(O)[C@@H]5C[C@@](C)(C(=O)NCc6ccco6)CC[C@]5(C)CC[C@@]4(C)[C@]3(C)CC[C@@H]12 [Example 26, (2S,4aS,6aS,6bR,8aR,12aS,14aS,14bR)-11-cyano-N-(2-furylmethyl)-14a-hydroxy-2,4a,6a,6b,9,9,12a-heptamethyl-10,14-dioxo-1,2,3,4,4a,5,6,6a,6b,7,8,8a,9,10,12a,14,14a,14b-octadecahydropicene-2-carboxamide]
  IC50: 10.2 nM

## Cn1cc(CNC(=O)[C@@]2(C)CC[C@]3(C)CC[C@@]4(C)[C@]5(C)CC[C@H]6C(C)(C)C(=O)C(C#N)=C[C@]6(C)C5=CC(=O)[C@]4(O)[C@@H]3C2)cn1 [Example 9, (2S,4aS,6aS,6bR,8aR,12aS,14aS,14bR)-11-cyano-14a-hydroxy-2,4a,6a,6b,9,9,12a-heptamethyl-N-[(1-methyl-1H-pyrazol-4-yl)methyl]-10,14-dioxo-1,2,3,4,4a,5,6,6a,6b,7,8,8a,9,10,12a,14,14a,14b-octadecahydropicene-2-carboxamide]
  IC50: 12.8 nM

## CC1(C)C(=O)C(C#N)=C[C@]2(C)C3=CC(=O)[C@]4(O)[C@@H]5C[C@@](C)(C(=O)NC6CCCCC6)CC[C@]5(C)CC[C@@]4(C)[C@]3(C)CC[C@@H]12 [Example 21, (2S,4aS,6aS,6bR,8aR,12aS,14aS,14bR)-11-cyano-N-cyclohexyl-14a-hydroxy-2,4a,6a,6b,9,9,12a-heptamethyl-10,14-dioxo-1,2,3,4,4a,5,6,6a,6b,7,8,8a,9,10,12a,14,14a,14b-octadecahydropicene-2-carboxamide]
  IC50: 9.7 nM

## CC1(C)C(=O)C(C#N)=C[C@]2(C)C3=CC(=O)[C@]4(O)[C@@H]5C[C@@](C)(C(=O)NC6CCOCC6)CC[C@]5(C)CC[C@@]4(C)[C@]3(C)CC[C@@H]12 [Example 18, (2S,4aS,6aS,6bR,8aR,12aS,14aS,14bR)-11-cyano-14a-hydroxy-2,4a,6a,6b,9,9,12a-heptamethyl-10,14-dioxo-N-(tetrahydro-2H-pyran-4-yl)-1,2,3,4,4a,5,6,6a,6b,7,8,8a,9,10,12a,14,14a,14b-octadecahydropicene-2-carboxamide]
  IC50: 17.1 nM

## CC1(C)C(=O)C(C#N)=C[C@]2(C)C3=CC(=O)[C@]4(O)[C@@H]5C[C@@](C)(C(=O)NCC#N)CC[C@]5(C)CC[C@@]4(C)[C@]3(C)CC[C@@H]12 [Example 29, (2S,4aS,6aS,6bR,8aR,12aS,14aS,14bR)-11-cyano-N-(cyanomethyl)-14a-hydroxy-2,4a,6a,6b,9,9,12a-heptamethyl-10,14-dioxo-1,2,3,4,4a,5,6,6a,6b,7,8,8a,9,10,12a,14,14a,14b-octadecahydropicene-2-carboxamide]
  IC50: 16.9 nM

## CC1(C)C(=O)C(C#N)=C[C@]2(C)C3=CC(=O)[C@@H]4[C@@H]5C[C@@](C)(C(=O)NC6CCCCC6)CC[C@]5(C)CC[C@@]4(C)[C@]3(C)CC[C@@H]12 [Example 36, (2S,4aS,6aR,6bS,8aR,12aS,14aR,14bS)-11-cyano-N-cyclohexyl-2,4a,6a,6b,9,9,12a-heptamethyl-10,14-dioxo-1,2,3,4,4a,5,6,6a,6b,7,8,8a,9,10,12a,14,14a,14b-octadecahydropicene-2-carboxamide]
  IC50: 142 nM

## CCC(O)CNC(=O)[C@@]1(C)CC[C@]2(C)CC[C@@]3(C)[C@]4(C)CC[C@H]5C(C)(C)C(=O)C(C#N)=C[C@]5(C)C4=CC(=O)[C@]3(O)[C@@H]2C1 (stereo partly drawn) [Example 14, (2S,4aS,6aS,6bR,8aR,12aS,14aS,14bR)-11-cyano-14a-hydroxy-N-(2-hydroxybutyl)-2,4a,6a,6b,9,9,12a-heptamethyl-10,14-dioxo-1,2,3,4,4a,5,6,6a,6b,7,8,8a,9,10,12a,14,14a,14b-octadecahydropicene-2-carboxamide]
  IC50: 53.7 nM

## C[C@H](NC(=O)[C@@]1(C)CC[C@]2(C)CC[C@@]3(C)[C@]4(C)CC[C@H]5C(C)(C)C(=O)C(C#N)=C[C@]5(C)C4=CC(=O)[C@]3(O)[C@@H]2C1)c1ccccc1 [Example 20, (2S,4aS,6aS,6bR,8aR,12aS,14aS,14bR)-11-cyano-14a-hydroxy-2,4a,6a,6b,9,9,12a-heptamethyl-10,14-dioxo-N-[(1S)-1-phenylethyl]-1,2,3,4,4a,5,6,6a,6b,7,8,8a,9,10,12a,14,14a,14b-octadecahydropicene-2-carboxamide]
  IC50: 38.6 nM

## COC(=O)[C@]12CCC(C)(C)C[C@H]1[C@H]1C(=O)C=C3[C@@]4(C)C=C(C#N)C(=O)C(C)(C)[C@@H]4CC[C@@]3(C)[C@]1(C)CC2 [bardoxolone methyl, reference compound]
  IC50: 29 nM

## CC1(C)C(=O)C(C#N)=C[C@]2(C)C3=CC(=O)[C@]4(O)[C@@H]5C[C@@](C)(C(=O)NCc6cnco6)CC[C@]5(C)CC[C@@]4(C)[C@]3(C)CC[C@@H]12 [Example 3, (2S,4aS,6aS,6bR,8aR,12aS,14aS,14bR)-11-cyano-14a-hydroxy-2,4a,6a,6b,9,9,12a-heptamethyl-N-(1,3-oxazol-5-ylmethyl)-10,14-dioxo-1,2,3,4,4a,5,6,6a,6b,7,8,8a,9,10,12a,14,14a,14b-octadecahydropicene-2-carboxamide]
  IC50: 14.6 nM

## COC(=O)[C@@H]1CCCN1C(=O)[C@@]1(C)CC[C@]2(C)CC[C@@]3(C)[C@]4(C)CC[C@H]5C(C)(C)C(=O)C(C#N)=C[C@]5(C)C4=CC(=O)[C@]3(O)[C@@H]2C1 [Example 24, methyl 1-{[(2S,4aS,6aS,6bR,8aR,12aS,14aS,14bR)-11-cyano-14a-hydroxy-2,4a,6a,6b,9,9,12a-heptamethyl-10,14-dioxo-1,2,3,4,4a,5,6,6a,6b,7,8,8a,9,10,12a,14,14a,14b-octadecahydropicen-2-yl]carbonyl}prolinate]
  IC50: 16.6 nM
